According to US20110212108A1, “NEUREGULIN/ERBB SIGNALING AND INTEGRIN” (THE REGENTS OF THE UNIVERSITY OF CALIFORNIA, priority 2008, published 2011):
Changes are numbered by the printed parent chain. “Also recorded” adds a separate entry of the source.

B1: WT NRG1α (175-241): wild type human neuregulin 1 fragment, residues 175-241 of SEQ ID NO:4 (SEQ ID NO:5), entire EGF-like motif and α domain (protein)
chain: GTSHLVKCAEKEKTFCVNGGECFMVKDLSNPSRYLCKCQPGFTGARCTENVPMKVQNQEKAEELYQK
modifications: integrin-binding site within human neuregulin, residues 175-241of human neuregulin 1alpha, long version
B2: 3KE (175-241): NRG1α (175-241) with Lys181/Lys185/Lys187 mutated to Glu, SEQ ID NO:6 (3KE, long version) (protein)
chain: B1 chain with K7E, K11E, K13E
modifications: integrin-binding site within human neuregulin, residues 175-241of human neuregulin 1alpha, long version, 3KE mutant

How the values were obtained:
M21 human melanoma cells = assay: Western blotting of signaling in M21 cells; assay type: cell-based; conditions: 10 ng/ml; for ERK1/2 activation in M21 cells / ErbB3 phosphorylation in M21 cells: 15 min
Description: FIG. 9. Effect of the 3KE (175-222) mutation on ErbB3 phosphorylation, ERK1/2 activation, and cyclin D1 levels in M21 human melanoma cells. Cells were cultured in DMEM+1% FBS medium for 24 h, and then treated with 3KE or WT NRG1 (175-222) (10 ng/ml, if concentrations were not indicated) for 15 min (if time is not specified). Cell lysates were analyzed by Western blotting.
(§1) Cell proliferation: cells were starved by culturing DMEM with low-level FCS (e.g., 0.4%) overnight and then treated with the wt or mutant NRG1 (175-222) (up to 100 ng/ml). The cells were harvested in 15 min to 6 h after stimulation and cell lysates analyzed by western blotting with antibodies specific to signaling molecules. Alternatively, cells were cultured for 24-48 h after stimulation for testing proliferation or cell viability by MTS assays. Statistical analysis and calculation of kinetic constants were performed using Prism software (Graphpad).
Signaling: The levels of cell proliferation were measured by MTS assays and the kinetic data were analyzed by using Prism software (Graphpad). Melanoma cells were cultured in the presence of wt or mutant NRG1 (175-222), and the levels of ErbB2 and B3 phosphorylation, MAP kinase activation, or activation of other signaling molecules in the cell lysates were monitored by immunoprecipitating ErbB2 and B3 from the lysates and detecting tyrosine phosphorylation by western blotting with anti-phosphotyrosine antibodies (the IP-Western method) for ErbB2 and B3. Alternatively, anti-phospho ErbB2 or B3 antibodies (commercially available) and anti-phospho ERK1/2 antibodies were used.

[1] = test system: Human MCF-7 breast cancer cells; assay: MCF-7 cell proliferation, MTS assay; assay type: cell-based; conditions: serum-starved overnight, cultured 48 h, P=0.0018
Description: FIG. 12. Effect of wt and 3KE NRG1 (175-222) on the proliferation of MCF-7 cells. Human MCF-7 breast cancer cells were serum-starved overnight and cultured 48 h with wt or mutant GST-NRG1 (175-222). Cell proliferation was measured by using MTS assays. […] P=0.0018 by 2-way ANOVA.
as §1

CHO cells = assay: ERK1/2 activation in CHO cells, Western blotting; assay type: cell-based, Chinese hamster; conditions: serum-starved
Description: FIG. 14. […] ErbB4 was stably expressed in CHO cells (designated ErbB4-CHO cells). ErbB4 was detected in a cell lysate of ErbB4-CHO cells by western blotting (top). Serum-starved CHO or ErbB4-CHO cells were stimulated with wt NRG1 (175-222) or the 3KE (175-222) mutant and ERK1/2 activation was measured by Western blotting.
CHO cells express endogenous ErbB2 and ErbB3, but no ErbB4. CHO cells that express ErbB4 were generated by transfecting ErbB4 expression vector (designated ErbB4-CHO). […] It is therefore believed that the direct binding of integrin […] the Ras-MAP kinase pathway in ErbB4-CHO cells.

MCF-7 cells = assay: Western blot analysis of NRG1 signaling in MCF-7 cells; assay type: cell-based, human; conditions: 2.5 nM
Description: FIG. 22. Effect of the 3KE mutation on NRG1 signaling. The 3KE mutant of NRG1α (175-241) is defective in inducing ErbB3 phosphorylation, AKT activation and ERK1/2 activation. MCF-7 cells were serum-starved overnight and stimulated with 2.5 nM WT and the 3KE mutant of NRG1α (175-241) at indicated time points. Cell lysates were analyzed by western blotting. […] Data are shown with signals at time 0 as 1.
MCF-7 cells grown to confluence were serum-starved in serum-free medium overnight, and then treated with WT or 3KE mutant NRG1α (175-241) (2.5 nM) for 5 min to 6 h at 37° C. Cells were washed with ice-cold PBS once, and lysed with the lysis buffer (20 mM HEPES (pH 7.4), 100 mM NaCl, 10% Glycerol, 1% NP-40, 1 mM MgCl2, 5 mM EDTA, 0.5% Triton X-100, 1 mM phenylmethylsulfonyl fluoride, 20 mM NaF, 1 mM Na3VO4, protease inhibitor cocktail (Sigma-Aldrich)). Protein concentrations in the cell lysates were determined using BCA protein assay (Pierce). Equal amounts of cell proteins were analyzed by SDS-PAGE and transferred onto 0.45 μm pore-size polyvinylidene fluoride membrane (Milipore, Birellica, Mass.). The membrane was incubated with primary antibodies, then HRP-conjugated secondary antibody and enhanced chemiluminescence detection reagents (Pierce).

[2] = biological target: T1, Recombinant human ErbB3 Fc chimera (Homo sapiens, UniProt P21860); assay: Competitive binding assay on immobilized ErbB3; conditions: biotin labeled WT 20 nM
T1 construct: Recombinant soluble ErbB3 Fc fusion protein was coated onto well of 96-well microtiter plate; purchased R&D Systems
T1 sequence (P21860 20-643 limits assumed, change not shown): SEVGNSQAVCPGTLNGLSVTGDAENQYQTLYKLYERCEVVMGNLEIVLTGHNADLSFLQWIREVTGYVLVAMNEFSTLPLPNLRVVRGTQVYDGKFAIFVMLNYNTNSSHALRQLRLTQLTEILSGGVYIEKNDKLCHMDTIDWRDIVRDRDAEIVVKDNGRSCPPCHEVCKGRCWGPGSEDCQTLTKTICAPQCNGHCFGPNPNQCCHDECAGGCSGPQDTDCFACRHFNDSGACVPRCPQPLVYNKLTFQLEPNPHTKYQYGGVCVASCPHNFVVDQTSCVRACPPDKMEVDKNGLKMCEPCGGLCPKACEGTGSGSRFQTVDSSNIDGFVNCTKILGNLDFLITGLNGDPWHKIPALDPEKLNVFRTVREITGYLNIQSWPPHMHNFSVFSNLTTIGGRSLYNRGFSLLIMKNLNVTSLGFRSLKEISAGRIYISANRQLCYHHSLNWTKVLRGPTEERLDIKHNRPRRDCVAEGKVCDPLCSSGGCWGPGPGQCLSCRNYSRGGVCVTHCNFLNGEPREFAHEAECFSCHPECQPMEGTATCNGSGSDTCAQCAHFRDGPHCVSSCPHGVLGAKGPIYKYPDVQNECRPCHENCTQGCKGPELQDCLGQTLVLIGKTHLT
Description: FIG. 20. The 3KE mutant of NRG1α (175-241) binds to ErbB3. a). Binding of the 3KE mutant of NRG1α (175-241) to recombinant ErbB3. Recombinant soluble ErbB3 Fc fusion protein (R&D system) was coated onto wells of 96-well microtiter plate (1 μg/ml). NRG1α (175-241) WT or 3KE (175-241) mutant was added to the wells and incubated for 1 h at room temperature. GST was used as a control. After washing the wells, bound GST NRG1α (175-241) was determined by using anti-GST antibody HRP conjugate. […] Competitive binding assay. Recombinant soluble ErbB3 Fc fusion protein was coated onto well of 96-well microtiter plate (1 μg/ml). Binding of biotin labeled NRG1α (175-241) WT (20 nM) in the presence of increasing concentrations of NRG1α (175-241) WT, 3KE (175-241) or GST. After washing the wells, bound biotin labeled NRG1α (175-241) WT was determined by using streptavidin HRP conjugate.
GST-fusion WT NRG1α (175-241) was biotinylated by using EZ-Link Sulfo-NHS-LC-Biotin (Pierce) as described in the manufacturer's instructions. Briefly, GST-fusion WT NRG1α (175-241) was incubated with sulfo-NHS-LCBiotin for 1 hour on ice, and remaining free sulfo-NHS-LC-Biotin was quenched with Tris-HCl buffer pH 8.0. Recombinant human ErbB3 Fc chimera (R&D Systems) was immobilized to wells of 96-well microtiter plate at 1 μg/ml coating concentration in 0.1 M NaHCO3, pH9.4 overnight at 4° C., and the remaining protein binding sites were blocked by incubating with 0.1% BSA. Wells were then incubated with biotinylated GST fusion NRG1α (175-241) in the presence of non-labeled GST, GST-WT NRG1α (175-241) or GST-3KE (175-241) for 3 h at room temperature. Bound biotinylated GST-fusion NRG1α (175-241) WT to wells was determined with streptavidin HRP conjugate and HRP substrate at 490 nm.

Row | Molecule | cyclin D1 levels in M21 cells (M21 human melanoma cells) | ERK1/2 activation in M21 cells (M21 human melanoma cells) | ErbB3 phosphorylation in M21 cells (M21 human melanoma cells) | Induction of proliferation of MCF-7 cells [1] | ERK1/2 activation in (mock-transfected) CHO cells (CHO cells) | ERK1/2 activation in (mock-transfected) CHO cells (CHO cells; listed as 3KE (175-222)) | ERK1/2 activation in M21 cells (M21 human melanoma cells; listed as Wt NRG1 (175-222)) | AKT activation (phosphorylation) in MCF-7 cells (MCF-7 cells) | ERK1/2 activation (phosphorylation) in MCF-7 cells (MCF-7 cells) | ErbB3 phosphorylation in MCF-7 cells (MCF-7 cells) | Competition for binding of biotinylated WT NRG1α (175-241) to immobilized soluble ErbB3 [2] | Competition for binding of biotinylated WT NRG1α (175-241) to immobilized soluble ErbB3 ([2]; listed as 3KE NRG1α (175-241)) | Competition for binding of biotinylated WT NRG1α (175-241) to immobilized soluble ErbB3 ([2]; listed as 3KE mutant of NRG1α (175-241))
1 | 3KE (175-222): NRG1 (175-222) with Lys181/Lys185/Lys187 mutated to Glu; GTSHLVECAEEEETFCVNGGECFMVKDLSNPSRYLCKCQPGFTGARCT (SEQ ID NO:11) (integrin-binding site within human neuregulin, 3KE mutant, short version) | suppressed | did not induce the level of ERK1/2 activation; also recorded: suppressed ERK1/2 activation | did not induced ErbB3 phosphorylation | did not | suppressed | suppressed ERK1/2 activation | – | – | – | – | – | – | –
2 | wt NRG1 (175-222): wild type human neuregulin 1 fragment, EGF-like domain, residues 175-222 of SEQ ID NO:4 (SEQ ID NO:3) (GTSHLVKCAEKEKTFCVNGGECFMVKDLSNPSRYLCKCQPGFTGARCT; integrin-binding site within human neuregulin 1 EGF-like region and portion of alpha domain, residues 175-222 of human neuregulin 1 alpha) [reference compound] | – | enhanced the level of ERK1/2 activation | induced ErbB3 phosphorylation | induced cell proliferation | enhanced ERK1/2 activation | – | induced | – | – | – | – | – | –
3 | B1 | – | – | – | – | – | – | – | markedly induced phosphorylation | markedly induced phosphorylation | markedly induced phosphorylation | at comparable levels | – | –
4 | B2 | – | – | – | – | – | – | – | little or no AKT activation | much lower levels than WT NRG1α (175-241); also recorded: only weakly induced phosphorylation | much lower levels than WT NRG1α (175-241); also recorded: only weakly induced phosphorylation | – | at comparable levels | binds to ErbB3 at levels comparable to WT NRG1α (175-241)
